In US8247211B2, “Glycopeptide antibiotics” (American Cyanamid Company, priority 2001, dated 2012):
Converted amounts (≈) assume the structure as drawn.

How the values were obtained:
Assay in all cases: In vitro antibacterial evaluation: minimum inhibitory concentration (MIC), broth dilution method
Format in all cases: cell-based
Enterococcus sp. = conditions: broth dilution, 5×10^5 CFU/mL, 18 hours at 35° C.
Method: (§1) The minimum inhibitory concentration (MIC), the lowest concentration of the antibiotic which inhibits growth of the test organism, is determined by the broth dilution method using Muller-Hinton II […] (Baltimore Biological Laboratories) following the recommendations of the National Committee for Clinical Laboratory Standards [Methods for dilution antimicrobial susceptibility tests for bacteria that grow aerobically, approved standard M7-A2, National Committee for Clinical Laboratory Standards, Villanova, Pa].
(§2) An inoculum level of 5×10^5 CFU/mL, and a range of antibiotic concentrations (64-0.06 μg/mL) is used. […] The test organisms include a spectrum of Gram-positive bacteria comprised of Staphylococcus sp., Streptococcus sp. and Enterococcus sp. These organisms include recent clinical isolates that are resistant to methicillin, penicillin and/or vancomycin.

Escherichia coli = conditions: 5×10^5 CFU/mL, 18 hours at 35° C.
Method: as §1, §2

Staphylococcus sp. = conditions: for MIC Staphylococcus aureus (ATCC 29213): strain ATCC 29213; for MIC Staphylococcus aureus (GC 1131): strain GC 1131; for MIC Staphylococcus aureus (GC 4541): strain GC 4541; for MIC Staphylococcus aureus (GC 4542): strain GC 4542; for MIC Staphylococcus aureus-SMITH (GC 4543): strain GC 4543; for MIC Staphylococcus aureus (GC 4544): strain GC 4544; for MIC Staphylococcus aureus (GC 4545): strain GC 4545; for MIC Staphylococcus haemolyticus (GC 4546): strain GC 4546; for MIC Coagulase Negative Staphylococcus (GC 4547): strain GC 4547; for MIC Coagulase Negative Staphylococcus (GC 4548): strain GC 4548; for MIC Coagulase Negative Staphylococcus (GC 4549): strain GC 4549; for MIC Coagulase Negative Staphylococcus (GC 4551): strain GC 4551; for MIC Coagulase Negative Staphylococcus (ID-3941): strain ID-3941
Method: as §1, §2

Streptococcus sp. = conditions: broth dilution, 5×10^5 CFU/mL, 18 hours at 35° C.
Method: as §1, §2

[1] = broth dilution, 18 hours at 35° C.

MIC Enterococccus avium (GC 4558) (Enterococcus sp.) [µg/mL]	MIC Enterococccus faecalis (ATCC 29212) (Enterococcus sp.) [µg/mL]	MIC Enterococccus faecalis (GC 4552) (Enterococcus sp.) [µg/mL]	MIC Enterococccus faecalis (GC 4553) (Enterococcus sp.) [µg/mL]	MIC Enterococccus faecalis (GC 4554) (Enterococcus sp.) [µg/mL]	MIC Enterococccus faecium (GC 2243) (Enterococcus sp.) [µg/mL]	MIC Enterococccus faecium (GC 4556) (Enterococcus sp.) [µg/mL]	MIC Enterococccus faecium (GC 4557) (Enterococcus sp.) [µg/mL]	MIC Enterococcus faecalis (GC 2242) (Enterococcus sp.) [µg/mL]	MIC Escherichia coli (ATCC 25922) (Escherichia coli) [µg/mL]	MIC Staphylococcus aureus (ATCC 29213) (Staphylococcus sp.) [µg/mL]	MIC Staphylococcus aureus (GC 1131) (Staphylococcus sp.) [µg/mL]	MIC Staphylococcus aureus (GC 4541) (Staphylococcus sp.) [µg/mL]	MIC Staphylococcus aureus (GC 4542) (Staphylococcus sp.) [µg/mL]	MIC Staphylococcus aureus-SMITH (GC 4543) (Staphylococcus sp.; 18 hours at 35° C.) [µg/mL]	MIC Staphylococcus aureus-SMITH (GC 4543) (Staphylococcus sp.; [1]) [µg/mL]	MIC Staphylococcus aureus (GC 4544) (Staphylococcus sp.) [µg/mL]	MIC Staphylococcus aureus (GC 4545) (Staphylococcus sp.) [µg/mL]	SMILES	MIC Staphylococcus haemolyticus (GC 4546) (Staphylococcus sp.) [µg/mL]	MIC Staphylococcus haemolyticus (GC 4546) (Staphylococcus sp.; [1]) [µg/mL]	also measured
16 (≈ 11.2 µM)	16 (≈ 11.2 µM)	16 (≈ 11.2 µM)	16 (≈ 11.2 µM)	16 (≈ 11.2 µM)	16 (≈ 11.2 µM)	16 (≈ 11.2 µM)	2 (≈ 1.4 µM)	8 (≈ 5.6 µM)	64 (≈ 44.8 µM)	2 (≈ 1.4 µM)	4 (≈ 2.8 µM)	2 (≈ 1.4 µM)	4 (≈ 2.8 µM)	8 (≈ 5.6 µM)	8 (≈ 5.6 µM)	4 (≈ 2.8 µM)	4 (≈ 2.8 µM)	CC(c1ccccc1)C1NC(=O)CNC(=O)C(CO)NC(=O)C(C(O)C2CNC(=N)N2C2OC(CO)C(O)C(O)C2O)NC(=O)C(C(O)C2CNC(=N)N2)NC(=O)C(Cc2ccc(OC3OC(CO)C(OC4OC(COC(=O)OCc5ccccc5)C(O)C(O)C4O)C(O)C3O)cc2)NC1=O (stereo not drawn) [Example 101a, Cyclo[glycyl-β-methylphenylalanyl-O-[4-O-[6-O-[(phenylmethoxy)carbonyl]hexopyranosyl]-hexopyranosyl]tyrosyl-3-(2-iminoimidazolidin-4-yl)seryl-3-(3-hexopyranosyl-2-iminoimidazolidin-4-yl)serylseryl]]	1 (≈ 0.7 µM)	1 (≈ 0.7 µM)	MIC Coagulase Negative Staphylococcus (GC 4547) (Staphylococcus sp.): 1 µg/mL (≈ 0.7 µM); MIC Coagulase Negative Staphylococcus (GC 4547) (Staphylococcus sp.; [1]): 1 µg/mL (≈ 0.7 µM); MIC Coagulase Negative Staphylococcus (GC 4548) (Staphylococcus sp.): 1 µg/mL (≈ 0.7 µM); MIC Coagulase Negative Staphylococcus (GC 4548) (Staphylococcus sp.; [1]): 1 µg/mL (≈ 0.7 µM); MIC Coagulase Negative Staphylococcus (GC 4549) (Staphylococcus sp.): 1 µg/mL (≈ 0.7 µM); MIC Coagulase Negative Staphylococcus (GC 4549) (Staphylococcus sp.; [1]): 1 µg/mL (≈ 0.7 µM); MIC Coagulase Negative Staphylococcus (GC 4551) (Staphylococcus sp.): 2 µg/mL (≈ 1.4 µM); MIC Coagulase Negative Staphylococcus (GC 4551) (Staphylococcus sp.; [1]): 2 µg/mL (≈ 1.4 µM); MIC Coagulase Negative Staphylococcus (ID-3941) (Staphylococcus sp.): 1 µg/mL (≈ 0.7 µM); MIC Coagulase Negative Staphylococcus (ID-3941) (Staphylococcus sp.; [1]): 1 µg/mL (≈ 0.7 µM); MIC Streptococcus agalactiae (GC 4564) (Streptococcus sp.): 1 µg/mL (≈ 0.7 µM); MIC Streptococcus pneumoniae (GC 4565) (Streptococcus sp.): <0.5 µg/mL; MIC Streptococcus pyogenes (ID-3187) (Streptococcus sp.): 1 µg/mL (≈ 0.7 µM)
4 (≈ 2.82 µM)	8 (≈ 5.64 µM)	4 (≈ 2.82 µM)	4 (≈ 2.82 µM)	8 (≈ 5.64 µM)	4 (≈ 2.82 µM)	8 (≈ 5.64 µM)	2 (≈ 1.41 µM)	4 (≈ 2.82 µM)	32 (≈ 22.5 µM)	2 (≈ 1.41 µM)	2 (≈ 1.41 µM)	2 (≈ 1.41 µM)	2 (≈ 1.41 µM)	2 (≈ 1.41 µM)	2 (≈ 1.41 µM)	4 (≈ 2.82 µM)	2 (≈ 1.41 µM)	N=C1NCC(C(O)C2NC(=O)C(Cc3ccc(OC4OC(CO)C(OC5OC(CO)C(O)C6OC7(OC56)C5CC6CC(C5)CC7C6)C(O)C4O)cc3)NC(=O)C(CC3CCCCC3)NC(=O)CNC(=O)C(CO)NC(=O)C(C(O)C3CNC(=N)N3C3OC(CO)C(O)C(O)C3O)NC2=O)N1 (stereo not shown) [Example 106a, Cyclo[3-cyclohexylalanyl-O-[4-O-[2,3-O-(2-adamantylidene)hexopyranosyl]hexopyranosyl]-tyrosyl-3-(2-iminoimidazolidin-4-yl)seryl-3-(3-hexopyranosyl-2-iminoimidazolidin-4-yl)-serylserylglycyl]]	2 (≈ 1.41 µM)	2 (≈ 1.41 µM)	MIC Enterococccus faecalis (GC 2691) (Enterococcus sp.): 4 µg/mL (≈ 2.82 µM); MIC Enterococccus faecalis (GC 3059) (Enterococcus sp.): 8 µg/mL (≈ 5.64 µM); MIC Enterococccus faecalis (GC 6189) (Enterococcus sp.): 4 µg/mL (≈ 2.82 µM); MIC Escherichia coli (GC 4559) (Escherichia coli): 32 µg/mL (≈ 22.5 µM); MIC Escherichia coli (GC 4560) (Escherichia coli): 2 µg/mL (≈ 1.41 µM); MIC Staphylococcus aureus (GC 3051) (Staphylococcus sp.; strain GC 3051): 2 µg/mL (≈ 1.41 µM); MIC Staphylococcus aureus (GC 3053) (Staphylococcus sp.; strain GC 3053): 2 µg/mL (≈ 1.41 µM); MIC Coagulase Negative Staphylococcus (GC 4547) (Staphylococcus sp.): 2 µg/mL (≈ 1.41 µM); MIC Coagulase Negative Staphylococcus (GC 4547) (Staphylococcus sp.; [1]): 2 µg/mL (≈ 1.41 µM); MIC Coagulase Negative Staphylococcus (GC 4548) (Staphylococcus sp.): 1 µg/mL (≈ 0.704 µM); MIC Coagulase Negative Staphylococcus (GC 4548) (Staphylococcus sp.; [1]): 1 µg/mL (≈ 0.704 µM); MIC Coagulase Negative Staphylococcus (GC 4549) (Staphylococcus sp.): 1 µg/mL (≈ 0.704 µM); MIC Coagulase Negative Staphylococcus (GC 4549) (Staphylococcus sp.; [1]): 1 µg/mL (≈ 0.704 µM); MIC Coagulase Negative Staphylococcus (GC 4551) (Staphylococcus sp.): 2 µg/mL (≈ 1.41 µM); MIC Coagulase Negative Staphylococcus (GC 4551) (Staphylococcus sp.; [1]): 2 µg/mL (≈ 1.41 µM); MIC Streptococcus agalactiae (GC 4564) (Streptococcus sp.): 0.25 µg/mL (≈ 0.176 µM); MIC Streptococcus pneumoniae (GC 1894) (Streptococcus sp.): <0.06 µg/mL; MIC Streptococcus pneumoniae (GC 4565) (Streptococcus sp.): <0.06 µg/mL; MIC Streptococcus pneumonine (ATCC 6301) (Streptococcus sp.): 0.12 µg/mL (≈ 0.0845 µM); MIC Streptococcus pyogenes (GC 4563) (Streptococcus sp.): 0.25 µg/mL (≈ 0.176 µM)
